Source: article PMC7356390, “Dehydrozingerone, a Curcumin Analog, as a Potential Anti-Prostate Cancer Inhibitor In Vitro and In Vivo” (Molecules, 2020)

Tests used:
PLS10 cells = assay: WST-1 cell viability assay; format: cell-based; details: Rattus norvegicus; 48 h, WST-1 assay, mean ± S.D.; read-out: IC50, cell proliferation of PLS10 cells
Experimental: Figure 2 Cytotoxicity of Cur (a) and DZG (b) on PLS10 cells. Cells were treated with Cur (0–50 μM) or DZG (0–200 µM) and incubated for 48 h. Cell viability was measured by WST-1 assay. Data are represented as mean ± S.D. of three independent experiments. * p < 0.05, ** p < 0.01 and *** p < 0.001 vs. control (one-way ANOVA, Dunnett’s multiple comparisons test, tested groups vs. control group). PLS10 cells (2.0 × 10^3 cells per well) were plated in a 96-well plate for 24 h. Cur and DZG were dissolved in DMSO and diluted to the final concentration in the culture medium. After that, the culture medium containing Cur (0–50 µM) or DZG (0–200 µM) in 0.5% DMSO (vehicle control) were added into the cells. The cells were incubated in 5% CO2 at 37°C for a further 48 h, and cell viability was determined using the WST-1 colorimetric assay (Roche Diagnostics, Mannheim, Germany). In each experiment, determinations were carried out in triplicate.

PLS10 cells xenograft = assay: In vivo antitumor activity, PLS10 cells xenograft model; set-up: species or system male BALB/c-nu/nu mice; details: for Body Weights at the end of the experiment / Organ Weights, Kidneys / Organ Weights, Livers: mean ± S.E.; for Ki67-labeling index in tumor sections: control 63; for tumor volume: control 96 cm^3; for CD31-positive areas in tumors (angiogenesis): vs control, p < 0.05; for survival percentage of nude mice: male, BALB/c-nu/nu, mouse, in vivo, 5 weeks
Experimental: Figure 4 DZG inhibited cell proliferation and angiogenesis in vivo using PLS10 cells xenograft model. Mice were subcutaneously injected with PLS10 cells and treated two times per week with Cur or DZG (30 mg/kg body weight) for a period of 5 weeks. Tumor volume was measured twice a week and at the end of the study (a). The tumor masses were collected, sectioned and analyzed by immunohistochemistry to detect the Ki67-labeling index (b), % TUNEL (Terminal deoxynucleotidyl transferase dUTP nick end labeling)-positive cells (c) and % of the vessel area (d). Data presented in bar diagrams represent the mean ± S.E of eight mice in the control and nine mice in the treatment groups. ** p < 0.01 vs. control (one-way ANOVA, Dunnett’s multiple comparisons test, tested groups vs. control group).
The in vivo antitumor activity of DZG or Cur was examined using five-week-old male BALB/c-nu/nu mice. Mice were randomly divided into 3 groups, with up to 8 or 9 mice per group. The PLS10 cells (5.0 × 10^5) were subcutaneously injected into each mouse. The treatments were initiated 2 days after PLS10 cells injections, at which point, mice received 50% DMSO in normal saline solution (NSS) (vehicle control) at 30 mg/kg body weight of Cur or DZG via i.p. injection two times a week for five weeks. The body weight of each mouse was measured twice a week during the experiment. At week 5 of the experiment, mice were euthanized, and primary tumors and organs, such as lungs, liver, kidneys and lymph nodes, were removed and fixed in 10% buffered formalin. The tumor volume of each mouse was measured and calculated according to the following formulation: 0.52 × (axis1 × axis2 × axis3). A section of the primary tumor, lung, liver, and kidney specimens were collected and fixed in 10% buffered formalin. Tissue sections of the primary tumors and organs were stained with H&E.
The paraffin-embedded samples were sectioned and stained with rabbit monoclonal anti-Ki67 (SP6; Acris Antibodies GmbH, Herford, Germany) and rabbit polyclonal anti-CD31 antibodies (Abcam, Cambridge, UK) and sequentially stained with an anti-rabbit secondary antibody and avidin-biotin complex. The binding complexes were then visualized with diamino-benzidine. Subsequently, the sections were then counterstained lightly with hematoxylin for microscopic examination. The number of Ki67-staining cells for a minimum of 1000 cells was counted to determine the labeling index. For quantitative analysis of the vessel area, CD31-positive areas per the total area section were determined under microscopy (BZ-9000).
The paraffin-embedded samples were sectioned, and the degree of apoptosis in the tumor tissue was determined using a TUNEL assay (In situ Apoptosis Detection Kit; Takara Bio Inc., Ohtsu, Japan). The TUNEL assay was performed according to the manufacturer’s instructions. The number of TUNEL-labeled cells in a minimum of 1000 cells was counted in order to establish the labeling index.

[1] = 30 mg/kg i.p. two times a week for five weeks

Structure (SMILES): COc1cc(/C=C/C(=O)CC(=O)/C=C/c2ccc(O)c(OC)c2)ccc1O [Cur, Curcumin]
- IC50 (PLS10 cells): 20.3 ± 0.58 µM
- Body Weights at the end of the experiment (PLS10 cells xenograft; [1]): 26.71 ± 1.26
- Organ Weights, Kidneys (PLS10 cells xenograft; [1]): 0.40 ± 0.03
- Organ Weights, Livers (PLS10 cells xenograft; [1]): 1.67 ± 0.10
- Ki67-labeling index in tumor sections (PLS10 cells xenograft; [1]): 62%
- tumor volume (PLS10 cells xenograft; [1]): 38 cm^3
- CD31-positive areas in tumors (angiogenesis) (PLS10 cells xenograft; [1]): significantly reduced
- survival percentage of nude mice (PLS10 cells xenograft): 100%

Structure (SMILES): COc1cc(/C=C/C(C)=O)ccc1O [DZG, (E)-4-(4-hydroxy-3-methoxyphenyl)-but-3-en-2-one]
- IC50 (PLS10 cells): 153 ± 11.8 µM
- Body Weights at the end of the experiment (PLS10 cells xenograft; [1]): 27.12 ± 1.00
- Organ Weights, Kidneys (PLS10 cells xenograft; [1]): 0.39 ± 0.03
- Organ Weights, Livers (PLS10 cells xenograft; [1]): 1.60 ± 0.09
- apoptotic cells (TUNEL-positive) in tumor sections (PLS10 cells xenograft; 30 mg/kg i.p. two times a week for five weeks, control 7%): 10%
- Ki67-labeling index in tumor sections (PLS10 cells xenograft; [1]): 59%
- tumor volume (PLS10 cells xenograft; [1]): 24 cm^3
- CD31-positive areas in tumors (angiogenesis) (PLS10 cells xenograft; [1]): significantly reduced
- survival percentage of nude mice (PLS10 cells xenograft): 100%
